Experiments:
[1] = Inhibition of CoQ-CoQH2 aberrant metabolite formation during red-ox recycling, HPLC; type: physicochemical; conditions: in vitro
Description: Methanolic solution of coenzyme Q10 (1 mg/ml) was reduced by NaBH4 to pH 8 when the yellow solution became colorless. About 1 mg of 3,8-(OH)2-DBP was added to the solution and the mixture was analyzed by HPLC at different time intervals (0-80 min). A control CoQ10, without 3,8-(OH)2-DBP, was prepared similarly and analyzed at different time intervals (0-80 min).
Column—NovaPak RP C18 [250×4 mm]
Mobile phase—Methanol:Acetonitrile:Ethanol 30:30:40
Detection—PDA 275 nm for CoQ10
Reduced CoQ10 (CoQH2) has a tendency to rapidly autoxidize in the presence of air. […] The aberrant metabolites increased rapidly with time (Table 10).

[2] = tested on: stress-induced lipid peroxidation of mouse liver mitochondria; experiment: Stress-induced lipid peroxidation of mouse liver mitochondria (thiobarbituric acid reaction); type: in vivo, Swiss albino mice; conditions: oral each 5 mg/Kg b.w. per day for 5 days, hypoxic stress, control 0.495
Description: Swiss albino mice (20±g) were fed orally with—(a) 3,8-(OH)2-DBP; (b) CoQ10; (c) a combination of 3,8-(OH)2-DBP and CoQ10 and (d) 3,8-(OH)2-DBP and CoQ10 in a clathrated form with fusoms (each 5 mg/Kg b.w.), per day, for 5 days. The animals were subjected to hypoxic stress for 1 hour each day for 3 days from the 3rd day of the experiment. After the stipulated time-period, brain and liver of the animals were collected and mitochondria from the liver were separated as described previously (Liu Y, Deng F, Zhao R and Qu S, Chemosphere, 40(8):851-854, 2000). Lipid peroxidation in brain and liver-mitochondria was estimated by the method of Ohkawa et al. (Ohkawa H, Ohishi N and Yagi K, Assay for lipid peroxides in animal tissues by thiobarbituric acid reaction. Anal. Biochem., 95:351-358, 1979).

In the case of O=c1oc2cc(O)ccc2c2ccc(O)cc12 [3,8-(OH)2-DBP, 3,8-dihydroxydibenzo-α-pyrone], the “aberrant metabolite formation of CoQH2 in the presence of 3,8-(OH)2-DBP, in words” value [1] is reported as “did not form any aberrant metabolite for a long time”, the “Relative percentage of aberrant metabolites in presence of 3,8-(OH)2-DBP” value (shortened to “Relative percentage”) ([1]; pH 8, 0 minutes) is reported as 0% and the “Relative percentage” value ([1]; pH 8, 40 minutes) is reported as 0%. For the same molecule, the “Relative percentage” value ([1]; pH 8, 80 minutes) was 0% and the “OD Values at 532 nm (lipid peroxidation)” value [2] was 0.395.
